Tested on: 324938-238-R-J1-PDC complex spheroid viability
Assay: Anticancer human tumor 324938-238-R-J1-PDC patient-derived bladder carcinoma cell line growth inhibition
Details: for IC50: curve of first compound; for viability, T/C: stronger effect = lower value
In short: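 Multicellular complex spheroids of tumor cells with human endothelial cells (HUVEC) and mesenchymal stem cells; the LSD1 inhibitor iadademstat was combined with standard-of-care or investigational agents. Top concentration at or near clinical Cmax, half-log dilutions; final DMSO ≤0.25%.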

[1] = second compound 0.1 µM, first compound 0.000316 µM
[2] = second compound 0.1 µM, first compound 0.001 µM
[3] = second compound 0.1 µM, first compound 0.00316 µM
[4] = second compound 0.1 µM, first compound 0.01 µM
[5] = second compound 0.1 µM, first compound 0.0316 µM
[6] = second compound 0.1 µM, first compound 0.1 µM
[7] = second compound 0.316 µM, first compound 0.000316 µM
[8] = second compound 0.316 µM, first compound 0.001 µM
[9] = second compound 0.316 µM, first compound 0.00316 µM
[10] = second compound 0.316 µM, first compound 0.01 µM
[11] = second compound 0.316 µM, first compound 0.0316 µM
[12] = second compound 0.316 µM, first compound 0.1 µM
[13] = second compound 1 µM, first compound 0.000316 µM
[14] = second compound 1 µM, first compound 0.001 µM
[15] = second compound 1 µM, first compound 0.00316 µM
[16] = second compound 1 µM, first compound 0.01 µM
[17] = second compound 1 µM, first compound 0.0316 µM
[18] = second compound 1 µM, first compound 0.1 µM
[19] = second compound 3.16 µM, first compound 0.000316 µM
[20] = second compound 3.16 µM, first compound 0.001 µM
[21] = second compound 3.16 µM, first compound 0.00316 µM
[22] = second compound 3.16 µM, first compound 0.01 µM
[23] = second compound 3.16 µM, first compound 0.0316 µM
[24] = second compound 3.16 µM, first compound 0.1 µM
[25] = second compound 10 µM, first compound 0.000316 µM
[26] = second compound 10 µM, first compound 0.001 µM
[27] = second compound 10 µM, first compound 0.00316 µM
[28] = second compound 10 µM, first compound 0.01 µM
[29] = second compound 10 µM, first compound 0.0316 µM
[30] = second compound 10 µM, first compound 0.1 µM
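Also: spheroids also contain HUVEC and human MSCs and agents combined with iadademstat; spheroids exposed to agents for 7 days before readout.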

With `CC(C)CC(NC(=O)C(Cc1ccccc1)NC(=O)c1cnccn1)B(O)O` (stereo not given) + NC1CC1c1ccc(-c2cccc(O)c2)cc1 the IC50 (second compound 0.1 µM) was 0.458 nM, the IC50 (second compound 0.316 µM) was 0.404 nM and the IC50 (second compound 1 µM) was 0.364 nM. The IC50 (second compound 3.16 µM) was 0.389 nM, the IC50 (second compound 10 µM) was 0.34 nM and the viability, T/C [1] was 68.2%. It also gave a viability, T/C [2] of 12.1%, a viability, T/C [3] of 0.5% and a viability, T/C [4] of 2.29%. The viability, T/C [5] was 0.55%, the viability, T/C [6] was 0.16% and the viability, T/C [7] was 62%. It also gave a viability, T/C [8] of 5.56%, a viability, T/C [9] of 0.25% and a viability, T/C [10] of 0.3%. For the same molecule, the viability, T/C [11] was 0.26%, the viability, T/C [12] was 0.14% and the viability, T/C [13] was 56%. For the same molecule, the viability, T/C [14] was 6.79%, the viability, T/C [15] was 0.15% and the viability, T/C [16] was 0.61%. For the same molecule, the viability, T/C [17] was 0.07%, the viability, T/C [18] was 0.17% and the viability, T/C [19] was 59.2%. It also gave a viability, T/C [20] of 7.68%, a viability, T/C [21] of 0.39% and a viability, T/C [22] of 0.28%. For the same molecule, the viability, T/C [23] was 0.28%, the viability, T/C [24] was 0.14% and the viability, T/C [25] was 53.1%. For the same molecule, the viability, T/C [26] was 4.57%, the viability, T/C [27] was 0.15% and the viability, T/C [28] was 0.15%. The viability, T/C [29] was 0.16% and the viability, T/C [30] was 0.21%.

`CC(C)CC(NC(=O)CNC(=O)c1cc(Cl)ccc1Cl)B1OC(=O)CC(CC(=O)O)(C(=O)O)O1` (stereo not given) + NC1CC1c1ccc(-c2cccc(O)c2)cc1 was tested, and the IC50 (second compound 0.1 µM) was 1.65 nM, the IC50 (second compound 0.316 µM) was 1.39 nM and the IC50 (second compound 1 µM) was 1.39 nM. The IC50 (second compound 3.16 µM) was 1.36 nM, the IC50 (second compound 10 µM) was 1.18 nM and the viability, T/C [1] was 94.4%. It also gave a viability, T/C [2] of 68.7%, a viability, T/C [3] of 25.7% and a viability, T/C [4] of 5.88%. For the same molecule, the viability, T/C [5] was 3.13%, the viability, T/C [6] was 0.16% and the viability, T/C [7] was 73%. It also gave a viability, T/C [8] of 59.3%, a viability, T/C [9] of 26.3% and a viability, T/C [10] of 4.54%. The viability, T/C [11] was 0.95%, the viability, T/C [12] was 0.15% and the viability, T/C [13] was 78.3%. For the same molecule, the viability, T/C [14] was 61.5%, the viability, T/C [15] was 21.6% and the viability, T/C [16] was 4.36%. The viability, T/C [17] was 0.4%, the viability, T/C [18] was 1.08% and the viability, T/C [19] was 77.5%. It also gave a viability, T/C [20] of 58.5%, a viability, T/C [21] of 26.3% and a viability, T/C [22] of 5.45%. It also gave a viability, T/C [23] of 0.71%, a viability, T/C [24] of 1.92% and a viability, T/C [25] of 67.7%. The viability, T/C [26] was 54.7%, the viability, T/C [27] was 20.6% and the viability, T/C [28] was 2.92%. The viability, T/C [29] was 0.54% and the viability, T/C [30] was 0.22%.

For `Nc1ccccc1NC(=O)c1ccc(CNC(=O)OCc2cccnc2)cc1` + NC1CC1c1ccc(-c2cccc(O)c2)cc1, the IC50 (second compound 0.1 µM) was 501 nM, the IC50 (second compound 0.316 µM) was 437 nM and the IC50 (second compound 1 µM) was 487 nM. It also gave an IC50 (second compound 3.16 µM) of 489 nM, an IC50 (second compound 10 µM) of 401 nM and a viability, T/C (second compound 0.1 µM, first compound 0.00949 µM) of 86.6%. It also gave a viability, T/C (second compound 0.1 µM, first compound 0.03 µM) of 87.6%, a viability, T/C (second compound 0.1 µM, first compound 0.0949 µM) of 70.2% and a viability, T/C (second compound 0.1 µM, first compound 0.3 µM) of 62.6%. For the same molecule, the viability, T/C (second compound 0.1 µM, first compound 0.949 µM) was 36.7%, the viability, T/C (second compound 0.1 µM, first compound 3 µM) was 7.26% and the viability, T/C (second compound 0.316 µM, first compound 0.00949 µM) was 83.8%. The viability, T/C (second compound 0.316 µM, first compound 0.03 µM) was 80.1%, the viability, T/C (second compound 0.316 µM, first compound 0.0949 µM) was 71.7% and the viability, T/C (second compound 0.316 µM, first compound 0.3 µM) was 56.1%. It also gave a viability, T/C (second compound 0.316 µM, first compound 0.949 µM) of 35.9%, a viability, T/C (second compound 0.316 µM, first compound 3 µM) of 5.68% and a viability, T/C (second compound 1 µM, first compound 0.00949 µM) of 67.2%. For the same molecule, the viability, T/C (second compound 1 µM, first compound 0.03 µM) was 76%, the viability, T/C (second compound 1 µM, first compound 0.0949 µM) was 66.7% and the viability, T/C (second compound 1 µM, first compound 0.3 µM) was 56.3%. It also gave a viability, T/C (second compound 1 µM, first compound 0.949 µM) of 39.5%, a viability, T/C (second compound 1 µM, first compound 3 µM) of 3.75% and a viability, T/C (second compound 3.16 µM, first compound 0.00949 µM) of 76.7%. For the same molecule, the viability, T/C (second compound 3.16 µM, first compound 0.03 µM) was 67%, the viability, T/C (second compound 3.16 µM, first compound 0.0949 µM) was 70.4% and the viability, T/C (second compound 3.16 µM, first compound 0.3 µM) was 59.2%. For the same molecule, the viability, T/C (second compound 3.16 µM, first compound 0.949 µM) was 37.6%, the viability, T/C (second compound 3.16 µM, first compound 3 µM) was 5.73% and the viability, T/C (second compound 10 µM, first compound 0.00949 µM) was 63.2%. It also gave a viability, T/C (second compound 10 µM, first compound 0.03 µM) of 66.1%, a viability, T/C (second compound 10 µM, first compound 0.0949 µM) of 68.2% and a viability, T/C (second compound 10 µM, first compound 0.3 µM) of 51.2%. The viability, T/C (second compound 10 µM, first compound 0.949 µM) was 36.4% and the viability, T/C (second compound 10 µM, first compound 3 µM) was 6.9%.

`O=C(c1cc(Cc2n[nH]c(=O)c3ccccc23)ccc1F)N1CCN(C(=O)C2CC2)CC1` + NC1CC1c1ccc(-c2cccc(O)c2)cc1 was tested, and the IC50 (second compound 0.1 µM) was 2150 nM, the IC50 (second compound 0.316 µM) was 1980 nM and the IC50 (second compound 1 µM) was 917 nM. For the same molecule, the IC50 (second compound 3.16 µM) was 1500 nM, the IC50 (second compound 10 µM) was 1220 nM and the viability, T/C [5] was 89.8%. It also gave a viability, T/C [6] of 80.6%, a viability, T/C (second compound 0.1 µM, first compound 0.316 µM) of 72.4% and a viability, T/C (second compound 0.1 µM, first compound 1 µM) of 61.4%. It also gave a viability, T/C (second compound 0.1 µM, first compound 3.16 µM) of 43.3%, a viability, T/C (second compound 0.1 µM, first compound 10 µM) of 33.9% and a viability, T/C [11] of 87.8%. For the same molecule, the viability, T/C [12] was 78.5%, the viability, T/C (second compound 0.316 µM, first compound 0.316 µM) was 77.1% and the viability, T/C (second compound 0.316 µM, first compound 1 µM) was 62.7%. The viability, T/C (second compound 0.316 µM, first compound 3.16 µM) was 40.4%, the viability, T/C (second compound 0.316 µM, first compound 10 µM) was 36.3% and the viability, T/C [17] was 74.2%. It also gave a viability, T/C [18] of 74.2%, a viability, T/C (second compound 1 µM, first compound 0.316 µM) of 64.4% and a viability, T/C (second compound 1 µM, first compound 1 µM) of 48%. The viability, T/C (second compound 1 µM, first compound 3.16 µM) was 40.3%, the viability, T/C (second compound 1 µM, first compound 10 µM) was 34.1% and the viability, T/C [23] was 68.2%. The viability, T/C [24] was 74%, the viability, T/C (second compound 3.16 µM, first compound 0.316 µM) was 77.7% and the viability, T/C (second compound 3.16 µM, first compound 1 µM) was 56%. The viability, T/C (second compound 3.16 µM, first compound 3.16 µM) was 41.3%, the viability, T/C (second compound 3.16 µM, first compound 10 µM) was 36.2% and the viability, T/C [29] was 73.1%. For the same molecule, the viability, T/C [30] was 66.7%, the viability, T/C (second compound 10 µM, first compound 0.316 µM) was 66.3% and the viability, T/C (second compound 10 µM, first compound 1 µM) was 49.9%. For the same molecule, the viability, T/C (second compound 10 µM, first compound 3.16 µM) was 43.8% and the viability, T/C (second compound 10 µM, first compound 10 µM) was 38.2%.

Reference: PubChem BioAssay AID1918935 (Molecular Pharmacology Branch, DTP, NCI, 2023)
